From PMC10368966, “Safety and efficacy of AK0529 in respiratory syncytial virus‐infected infant patients: A phase 2 proof‐of‐concept trial” (Influenza and Other Respiratory Viruses, 2023)
Entries after “also recorded” stand apart in the source; their conditions may differ. Marks after values point to notes of the source that are not given here.

Columns and labels:
[1] = Phase 2 study: safety and tolerability (adverse events); format: in vivo, human (infants)
Protocol: (§1) Safety and tolerability was evaluated by clinical assessment of safety data, including laboratory data, electrocardiographic data, vital signs, and adverse events (AEs).
Clinical safety and tolerability were assessed on the safety population, comprising all subjects who received ≥1 dose of study drug. Clinical variables were evaluated in the full analysis population, which included all subjects who received a dose of study drug and for whom ≥1 post‐treatment assessment was available. Pharmacokinetic analysis was performed on those subjects in the safety population for whom both pre‐ and post‐dose samples were available.

[2] = Phase 2 study: AST and ALT shift evaluation; format: in vivo, human (infants)
Protocol: as §1
In study Part 1, no formal sample size calculation was performed. For Part 2, it was calculated that a sample size of 16 patients in each active treatment group would provide >90% power to detect a 50% reduction (mean ratio of 0.5) in RSV viral load AUC with AK0529 as compared with placebo, using a one‐sided significance level of 0.05, two‐sample equal variance t‐test, and assuming a 0.3 variation coefficient of the placebo for viral load. These assumptions were based on viral challenge models of early treatment in adults.[3] For the transaminase shift analysis, the Chi‐square test and Fisher's exact test were used, as appropriate, to test for differences between active treatment and placebo.

[3] = test system: clinical RSV isolates (31 A-subtypes and 29 B-subtypes); assay: Cytopathic and plaque reduction assays against clinical RSV isolates; format: cell-based
Protocol: AK0529 (ziresovir) is a potent, selective, and orally bioavailable RSV F protein inhibitor.[9]
The EC90 value was determined in the presence of the known plasma protein binding in the CPE assay. […] To achieve a target efficacious concentration in humans, it was expected that a minimum target of 5 × EC90 value, or approximately 40 ng/mL should be attained. To maintain the effectiveness, this target Ctrough level was required to be achieved across the dosing interval.

RSV infection = assay: Phase 2 study: Wang Respiratory Score; format: in vivo, human (infants); details: for Hodges–Lehmann estimation of between-group difference in Wang Respiratory Score: Part 2, 2 mg/kg vs placebo, 96 h
RSV [4] = test system: RSV; parameters: method as in PMID 31194544; details: orally administered ref 9; cited from earlier work
RSV [5] = assay: Phase 2 study: RSV viral load by quantitative reverse-transcription PCR on nasopharyngeal swab or aspirate; format: in vivo, human (infants); details: for greater reduction in median viral load than placebo: Part 2, 2 mg/kg bid, not statistically significant
Text: This was a double‐blind, placebo‐controlled, randomized, multicenter study with the primary objective to evaluate the safety and tolerability of single and multiple oral doses of AK0529. Secondary objectives were to evaluate the effect of AK0529 on Wang Respiratory Score, to determine the effects of treatment on viral load, and to characterize the pharmacokinetics (PK) of single and multiple AK0529 doses.
The study consisted of two parts. In both parts, subjects were randomized in a 2:1 ratio to receive active treatment or placebo. Subjects were stratified by age (6 to 24 months in Cohorts 1 and 3, and 1 to <6 months in Cohorts 2 and 4).
Part 1 was a single‐dose study with a 7‐day follow‐up. The doses administered to patients in Cohort 1 included 4, 2, and 1 mg/kg. The Safety Review Committee (SRC) reviewed PK and safety data after each of the sets of three patients, before further enrollment of subjects, and recommended 0.5 and 1 mg/kg as the doses for patients in Cohort 2.
In Part 2, subjects received AK0529 or placebo over 5 days and were followed until day 14 post‐initial dose. The doses in Cohort 3 included 1 and 0.5 mg/kg bid. In Cohort 4, the doses included 2, 1 and 0.5 mg/kg bid.

[6] = TEAE, preferred term, AK0529 N=49
[7] = TEAE, system organ class, AK0529 N=49
[8] = AK0529 n = 38, worst shift category
[9] = AK0529 n = 39, worst shift category

Cc1ccc2nc(N3CCS(=O)(=O)c4ccccc4C3)nc(NCC3(N)COC3)c2c1 [AK0529, ziresovir]
Subjects with any AEs ([1]; AK0529 all doses N = 49): 25 (51.0%) n (%)
Subjects with any TEAEs ([1]; AK0529 all doses N = 49): 24 (49.0%) n (%)
Subjects with any TEAEs induced withdrawal ([1]; AK0529 all doses N = 49): 0 n (%)
Subjects with any TEAEs leading to death ([1]; AK0529 all doses N = 49): 0 n (%)
Subjects with any drug related TEAEs ([1]; AK0529 all doses N = 49): 3 (6.1%) ^a n (%)
Subjects with any grade ≥3 TEAEs ([1]; AK0529 all doses N = 49): 2 (4.1%) ^c n (%)
Subjects with any serious TEAEs ([1]; AK0529 all doses N = 49, two cases of unrelated pneumonia): 2 (4.1%) ^b n (%)
patients reporting grade ≥1 TEAEs ([1]; AK0529 group 24/49): 49.0%
subjects with Grade 1 TEAE considered drug-related by the investigator ([1]; AK0529 group, three subjects): 6%
patients experiencing a serious TEAE ([1]; AK0529 group, two of 49, none related to drug treatment): 4.1%
withdrawals or deaths because of TEAEs ([1]; AK0529 groups): No withdrawals or deaths; also recorded: none led to death or withdrawal from the study
patients with grade ≥3 treatment-emergent adverse events ([1]; AK0529 groups 2/49): 4.1%
Acute tonsillitis [1, 6]: 1 (2.0%) n (%)
Anemia [1, 6]: 1 (2.0%) n (%)
Aspartate aminotransferase increased [1, 6]: 3 (6.1%) n (%)
Candida infection [1, 6]: 1 (2.0%) n (%)
Conjunctivitis [1, 6]: 1 (2.0%) n (%)
Constipation [1, 6]: 0 n (%)
Dermatitis [1, 6]: 1 (2.0%) n (%)
Dermatitis diaper [1, 6]: 4 (8.2%) n (%)
Diarrhea [1, 6]: 2 (4.1%) n (%)
Epistaxis [1, 6]: 2 (4.1%) n (%)
Erythema of eyelid [1, 6]: 1 (2.0%) n (%)
Eye pruritus [1, 6]: 0 n (%)
Flatulence [1, 6]: 1 (2.0%) n (%)
Gastrointestinal inflammation [1, 6]: 1 (2.0%) n (%)
Hematochezia [1, 6]: 0 n (%)
Hepatitis [1, 6]: 2 (4.1%) n (%)
Hyperkalemia [1, 6]: 2 (4.1%) n (%)
Hyperphosphatemia [1, 6]: 1 (2.0%) n (%)
Impaired gastric emptying [1, 6]: 0 n (%)
Injection site extravasation [1, 6]: 1 (2.0%) n (%)
Leukocytosis [1, 6]: 1 (2.0%) n (%)
Metabolic acidosis [1, 6]: 1 (2.0%) n (%)
Nasopharyngitis [1, 6]: 1 (2.0%) n (%)
Oral candidiasis [1, 6]: 1 (2.0%) n (%)
Otitis media acute [1, 6]: 2 (4.1%) n (%)
Pneumonia [1, 6]: 3 (6.1%) n (%)
Pyrexia [1, 6]: 1 (2.0%) n (%)
Rash [1, 6]: 1 (2.0%) n (%)
Rotavirus test positive [1, 6]: 0 n (%)
Thrombocytosis [1, 6]: 1 (2.0%) n (%)
Transaminases increased [1, 6]: 2 (4.1%) n (%)
Upper respiratory tract infection [1, 6]: 1 (2.0%) n (%)
Urine ketone body present [1, 6]: 1 (2.0%) n (%)
Vomiting [1, 6]: 1 (2.0%) n (%)
Blood and lymphatic system disorders [1, 7]: 3 (6.1%) n (%)
Eye disorders [1, 7]: 1 (2.0%) n (%)
Gastrointestinal disorders [1, 7]: 5 (10.2%) n (%)
General disorders and administration site conditions [1, 7]: 1 (2.0%) n (%)
Hepatobiliary disorders [1, 7]: 2 (4.1%) n (%)
Infections and infestations [1, 7]: 5 (10.2%) n (%)
Injury, poisoning and procedural complications [1, 7]: 1 (2.0%) n (%)
Investigations [1, 7]: 6 (12.2%) n (%)
Metabolism and nutrition disorders [1, 7]: 4 (8.2%) n (%)
Respiratory, thoracic and mediastinal disorders [1, 7]: 6 (12.2%) n (%)
Skin and subcutaneous tissue disorders [1, 7]: 6 (12.2%) n (%)
overall tolerability ([1]; hospitalized RSV-infected infant patients): well tolerated
Bacterial infection ([1]; human, in vivo): 0 n (%)
ALT shift: Abnormal CS to abnormal NCS ([2]; AK0529 n = 38): 0 n (%)
ALT shift: Abnormal CS to normal ([2]; AK0529 n = 38): 0 n (%)
ALT shift: Abnormal NCS to normal ([2]; AK0529 n = 38): 1 (2.6%) n (%)
ALT shift: No change ([2]; AK0529 n = 38): 34 (89.5%) n (%)
ALT shift: Abnormal NCS to abnormal CS [2, 8]: 1 (2.6%) n (%)
ALT shift: Normal to abnormal CS [2, 8]: 1 (2.6%) n (%)
ALT shift: Normal to abnormal NCS [2, 8]: 1 (2.6%) n (%)
AST shift: Abnormal CS to abnormal NCS ([2]; AK0529 n = 39): 1 (2.6%) n (%)
AST shift: Abnormal CS to normal ([2]; AK0529 n = 39): 1 (2.6%) n (%)
AST shift: Abnormal NCS to normal ([2]; AK0529 n = 39): 2 (5.1%) n (%)
AST shift: No change ([2]; AK0529 n = 39): 29 (74.4%) n (%)
AST shift: Abnormal NCS to abnormal CS [2, 9]: 0 n (%)
AST shift: Normal to abnormal CS [2, 9]: 2 (5.1%) n (%)
AST shift: Normal to abnormal NCS [2, 9]: 4 (10.3%) n (%)
association between exposure to active drug and deterioration / shifts in transaminase levels (ALT, AST) ([2]; vs placebo, Fisher's exact p = 0.516 (ALT), p = 0.644 (AST)): No statistically significant differences; also recorded: no association was found
potency against various RSV clinical isolates compared with laboratory strains [3]: remained the same
median Wang Respiratory Score change (RSV infection; Part 1, single dose, baseline to 24 h, one-sided p = 0.004 combined AK0529 groups vs placebo): decreased from baseline to 24 h in a dose‐related manner
median reduction in Wang Respiratory Score from baseline (RSV infection; Part 2, 2 mg/kg bid, baseline to 96 h, 95% CI −4.51, −2.03, placebo −2.0, one-sided p = 0.031): −4.0
Hodges–Lehmann estimation of between-group difference in Wang Respiratory Score (RSV infection; full analysis population, 95% CI −2, 1): −1
Hodges–Lehmann estimation of between-group difference in Wang Respiratory Score (RSV infection; two cases of bacterial pneumonia excluded, 95% CI −2, 0, p = 0.009): −1
patients achieving disease remission (Wang Respiratory Score ≤1) (RSV infection; post-hoc, 2 mg/kg bid, by Day 5, 8/11 patients, placebo 31%, p 0.0412): 73%
antiviral efficacy (RSV [4]): demonstrated antiviral efficacy
reductions in viral load relative to placebo (RSV [5]; Part 1, 24 h after a single dose): < 1 log10 PFUe/mL
greater reduction in median viral load than placebo (RSV [5]; 72 h): 1.25 log10 PFUe/mL
greater reduction in median viral load than placebo (RSV [5]; 96 h post-dose): 1.73 log10 PFUe/mL
